According to ChEMBL document CHEMBL5634134, “Design, synthesis, and biological evaluation of novel 4,4'-bipyridine derivatives acting as CDK9-Cyclin T1 protein-protein interaction inhibitors against triple-negative breast cancer” (Eur J Med Chem, 2023):
Active and inactive are the calls of the source. The rule behind the calls is not given here.

Columns and labels:
MDA-MB-231 [1] = experiment: Inhibition of colony formation in human MDA-MB-231 cells assessed as reduction in colony number at >=111 nM incubated for 10 days by crystal violet staining based analysis relative to control; assay type: functional; details: time 10 day
[2] = Cytotoxicity against human MCF-10A cells assessed as inhibition of cell growth incubated for 72 hrs by MTT assay; assay type: toxicity, cell-based
[3] = Cytotoxicity against human L02 cells assessed as inhibition of cell growth incubated for 72 hrs by MTT assay; assay type: toxicity, cell-based
[4] = Cytotoxicity against HK-2 cells assessed as inhibition of cell growth incubated for 72 hrs by MTT assay; assay type: toxicity, cell-based; details: human
[5] = Cytotoxicity against human MRC5 cells assessed as inhibition of cell growth incubated for 72 hrs by MTT assay; assay type: toxicity, cell-based
[6] = MRT (0 to t) in Sprague-Dawley rat at 50 mg/kg, ip measured afer 24 hrs by LC-MS/MS analysis; assay type: ADME, organism-based; details: in vivo
[7] = MRT (0 to infinity) in Sprague-Dawley rat at 50 mg/kg, ip measured afer 24 hrs by LC-MS/MS analysis; assay type: ADME, organism-based; details: in vivo
[8] = target: Cyclin-dependent kinase 1 (Homo sapiens) (UniProt P06493); experiment: Binding affinity to CDK1 in human MDA-MB-231 cells asssesed as thermal stabilization at 1 uM incubated for 8 hrs under 45 to 65 degreeC by Western blot analysis; assay type: cell-based
Cyclin-dependent kinase 1 (Homo sapiens), sequence (P06493 whole entry, looked up): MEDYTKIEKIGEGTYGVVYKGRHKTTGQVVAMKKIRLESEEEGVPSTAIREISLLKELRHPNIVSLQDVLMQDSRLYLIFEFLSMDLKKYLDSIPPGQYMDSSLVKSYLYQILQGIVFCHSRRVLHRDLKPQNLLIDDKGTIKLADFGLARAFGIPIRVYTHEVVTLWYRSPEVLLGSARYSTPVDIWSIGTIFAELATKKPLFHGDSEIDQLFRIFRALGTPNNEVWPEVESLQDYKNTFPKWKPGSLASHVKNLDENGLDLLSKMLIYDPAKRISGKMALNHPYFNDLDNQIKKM

[9] = target: Cyclin-dependent kinase 12 (Homo sapiens) (UniProt Q9NYV4); experiment: Binding affinity to CDK12 in human MDA-MB-231 cells asssesed as thermal stabilization at 1 uM incubated for 8 hrs under 45 to 65 degreeC by Western blot analysis; assay type: cell-based
Cyclin-dependent kinase 12 (Homo sapiens), sequence (Q9NYV4 whole entry, looked up): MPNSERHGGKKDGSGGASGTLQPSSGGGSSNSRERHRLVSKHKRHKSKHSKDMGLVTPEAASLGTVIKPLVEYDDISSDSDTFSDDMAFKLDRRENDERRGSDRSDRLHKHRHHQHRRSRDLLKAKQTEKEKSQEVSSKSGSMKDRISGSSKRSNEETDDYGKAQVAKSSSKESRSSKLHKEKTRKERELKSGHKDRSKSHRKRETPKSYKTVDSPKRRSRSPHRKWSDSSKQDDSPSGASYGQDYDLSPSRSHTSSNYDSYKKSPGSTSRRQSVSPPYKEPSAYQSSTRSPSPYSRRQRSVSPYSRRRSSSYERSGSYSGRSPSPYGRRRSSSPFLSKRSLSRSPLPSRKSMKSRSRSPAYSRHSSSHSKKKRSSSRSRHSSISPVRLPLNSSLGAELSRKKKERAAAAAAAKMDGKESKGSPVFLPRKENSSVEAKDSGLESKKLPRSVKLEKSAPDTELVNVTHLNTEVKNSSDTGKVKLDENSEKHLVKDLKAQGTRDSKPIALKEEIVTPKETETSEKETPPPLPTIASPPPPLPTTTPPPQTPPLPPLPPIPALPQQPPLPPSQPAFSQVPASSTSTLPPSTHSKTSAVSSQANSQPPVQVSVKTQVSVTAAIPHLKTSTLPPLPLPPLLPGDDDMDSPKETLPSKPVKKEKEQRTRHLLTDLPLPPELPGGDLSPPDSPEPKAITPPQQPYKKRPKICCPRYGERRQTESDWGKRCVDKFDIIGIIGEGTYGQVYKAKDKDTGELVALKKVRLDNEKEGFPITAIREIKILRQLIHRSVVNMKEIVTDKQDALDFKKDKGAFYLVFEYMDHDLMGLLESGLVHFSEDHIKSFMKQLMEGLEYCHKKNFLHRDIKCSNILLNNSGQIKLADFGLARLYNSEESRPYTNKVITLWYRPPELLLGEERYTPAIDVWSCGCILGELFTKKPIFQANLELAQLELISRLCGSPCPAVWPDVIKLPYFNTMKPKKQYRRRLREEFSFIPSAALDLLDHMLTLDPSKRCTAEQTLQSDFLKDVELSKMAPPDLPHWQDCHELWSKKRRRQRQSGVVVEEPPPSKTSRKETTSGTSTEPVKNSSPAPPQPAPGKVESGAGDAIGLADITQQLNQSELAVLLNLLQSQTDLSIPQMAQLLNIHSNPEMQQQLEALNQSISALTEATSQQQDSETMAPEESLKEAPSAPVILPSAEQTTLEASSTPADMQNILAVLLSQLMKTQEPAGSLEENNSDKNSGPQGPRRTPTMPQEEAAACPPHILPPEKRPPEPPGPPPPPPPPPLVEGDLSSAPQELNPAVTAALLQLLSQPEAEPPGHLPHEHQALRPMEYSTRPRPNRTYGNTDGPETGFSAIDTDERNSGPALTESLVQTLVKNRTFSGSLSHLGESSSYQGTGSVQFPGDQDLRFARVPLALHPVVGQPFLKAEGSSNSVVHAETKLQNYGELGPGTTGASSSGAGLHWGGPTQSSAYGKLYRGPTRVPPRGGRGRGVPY

MDA-MB-231 [10] = experiment: Induction of apoptosis in human MDA-MB-231 cells assessed as viable cells at 37 nM incubated for 72 hrs by Annexin V-FITC/PI staining based flow cytometry analysis (reference value: 94.81 %); assay type: functional; details: read-out: Activity
MDA-MB-231 [11] = experiment: Induction of apoptosis in human MDA-MB-231 cells assessed as early apoptotic cells at 37 nM incubated for 72 hrs by Annexin V-FITC/PI staining based flow cytometry analysis (reference value: 0.66 %); assay type: functional
MDA-MB-231 [12] = experiment: Induction of apoptosis in human MDA-MB-231 cells assessed as viable cells at 111 nM incubated for 72 hrs by Annexin V-FITC/PI staining based flow cytometry analysis (reference value: 94.81 %); assay type: functional; details: read-out: Activity
MDA-MB-231 [13] = experiment: Induction of apoptosis in human MDA-MB-231 cells assessed as necrotic cells at 111 nM incubated for 72 hrs by Annexin V-FITC/PI staining based flow cytometry analysis (reference value: 0.49 %); assay type: functional
MDA-MB-231 [14] = experiment: Induction of apoptosis in human MDA-MB-231 cells assessed as viable cells at 333 nM incubated for 72 hrs by Annexin V-FITC/PI staining based flow cytometry analysis (reference value: 94.81 %); assay type: functional; details: read-out: Activity
MDA-MB-231 [15] = experiment: Induction of apoptosis in human MDA-MB-231 cells assessed as late apoptotic cells at 333 nM incubated for 72 hrs by Annexin V-FITC/PI staining based flow cytometry analysis (reference value: 4.04 %); assay type: functional
MDA-MB-231 [16] = experiment: Induction of apoptosis in human MDA-MB-231 cells assessed as viable cells at 1000 nM incubated for 72 hrs by Annexin V-FITC/PI staining based flow cytometry analysis (reference value: 94.81 %); assay type: functional; details: read-out: Activity
MDA-MB-231 [17] = experiment: Induction of apoptosis in human MDA-MB-231 cells assessed as reduction in Bcl2 level incubated for 24 hrs by Western blot analysis; assay type: functional, cell-based; details: dose 37-1000 nM
MDA-MB-231 [18] = experiment: Induction of apoptosis in human MDA-MB-231 cells assessed as increase in cleaved PARP-1 protein incubated for 24 hrs by Western blotting analysis; assay type: functional, cell-based; details: dose 37-1000 nM
[19] = Toxicity in mouse assessed as increase in body weight at 62.5 to 500 mg/kg, ip administered for 16 days; assay type: organism-based; details: in vivo, 384 h, dose 62.5-500 mg/kg, time 16 day
[20] = Toxicity in mouse assessed as death rate at 1000 mg/kg, ip administered for 16 days relative to control; assay type: organism-based; details: in vivo, time 16 day, read-out: Activity
4T1 [21] = experiment: Antitumor activity against mouse 4T1 cells implanted in athymic BALB/c mouse assessed as tumor inhibition rate at 12.5 mg/kg, ip administered for 14 days relative to control; assay type: functional; details: 4T1, 336 h, time 14 day
4T1 [22] = experiment: Antitumor activity against mouse 4T1 cells implanted in athymic BALB/c mouse assessed as tumor inhibition rate at 25 mg/kg, ip administered for 14 days relative to control; assay type: functional; details: 4T1, 336 h, time 14 day
4T1 [23] = experiment: Antitumor activity against mouse 4T1 cells implanted in athymic BALB/c mouse assessed as reduction in tumor volume at 12.5 to 25 mg/kg, ip administered for 14 days; assay type: functional, organism-based; details: dose 12.5-25 mg/kg, time 14.0 day
[24] = Toxicity in athymic BALB/c mouse implanted with mouse 4T1 cells assessed as liver tissue damage at 12.5 to 25 mg/kg, ip administered for 14 days; assay type: organism-based; details: in vivo, 336 h, dose 12.5-25 mg/kg, time 14 day
[25] = Toxicity in athymic BALB/c mouse implanted with mouse 4T1 cells assessed as spleen tissue damage at 12.5 to 25 mg/kg, ip administered for 14 days; assay type: organism-based; details: in vivo, 336 h, dose 12.5-25 mg/kg, time 14 day
[26] = Toxicity in athymic BALB/c mouse implanted with mouse 4T1 cells assessed as lung tissue damage at 12.5 to 25 mg/kg, ip administered for 14 days; assay type: organism-based; details: in vivo, 336 h, dose 12.5-25 mg/kg, time 14 day
4T1 [27] = experiment: In vivo inhibition of RNA Pol II phosphorylation at ser2 in athymic BALB/c mouse implanted with mouse 4T1 cells at 12.5 to 25 mg/kg, ip administered once daily for 14 days by Western blot analysis; assay type: functional, organism-based; details: dose 12.5-25 mg/kg, time 14.0 day
MDA-MB-231 [28] = experiment: Synergistic antiproliferative activity against human MDA-MB-231 cells assessed as inhibition of cell growth incubated for 48 hrs in presence of varying concentrations of olaparib by MTT assay; assay type: functional, cell-based; details: dose 0.01-4 µM
MDA-MB-231 [29] = experiment: Inhibition of colony formation in human MDA-MB-231 cells at 20 nM incubated for 10 days in presence of olaparib by crystal violet staining based analysis; assay type: functional, cell-based; details: time 10.0 day
MDA-MB-231 [30] = experiment: Antiproliferative activity against human MDA-MB-231 cells assessed as decrease in sphere size by measuring diameter at 100 nM incubated for 10 days in presence of olaparib by confocal laser scanning microscopy; assay type: functional; details: time 10 day
MDA-MB-231 [31] = experiment: Inhibition of colony formation in human MDA-MB-231 cells assessed as reduction in colony size incubated for 10 days by crystal violet staining based analysis; assay type: functional, cell-based; details: dose 12-1000 nM, time 10.0 day
MDA-MB-231 [32] = experiment: Induction of apoptosis in human MDA-MB-231 cells transfected with shCDK9 assessed as reduction in Bcl-2 expression at 300 nM by Western blot analysis; assay type: functional, cell-based
[33] = Toxicity in mouse assessed as lethal dose administered intraperitoneally for 16 days by Karber's method; details: in vivo, route ip, time 16 day
[34] = Toxicity in athymic BALB/c mouse implanted with mouse 4T1 cells assessed as body weight loss at 12.5 mg/kg, ip administered for 14 days; assay type: organism-based; details: in vivo, 336 h, time 14 day
[35] = Toxicity in athymic BALB/c mouse implanted with mouse 4T1 cells assessed as reduction in tolerance at 12.5 mg/kg, ip administered for 14 days; assay type: organism-based; details: in vivo, 336 h, time 14 day

For `COc1ccc(C(=O)Nc2cc(-c3ccnc(N4CCC(O)CC4)c3)ccn2)cc1`, the “inhibition (INH)” value (MDA-MB-231 [1]) was ~100%, the IC50 at 72 h [2] was 498 nM and the IC50 at 72 h [3] was 756 nM. The IC50 at 72 h [4] was 481 nM, the IC50 at 72 h [5] was 335 nM and the MRT last at 24 h [6] was 1.26 h. For the same molecule, the MRT inf [7] was 1.26 h, the Activity [8] was “inactive” and the Activity [9] was “inactive”. The viability at 0.037 µM (MDA-MB-231 [10]) was 83.6%, the Activity (MDA-MB-231 [11]) was 3.14% and the viability at 0.111 µM (MDA-MB-231 [12]) was 43.6%. For the same molecule, the Activity (MDA-MB-231 [13]) was 0.17%, the viability at 0.333 µM (MDA-MB-231 [14]) was 30.8% and the Activity (MDA-MB-231 [15]) was 48.6%. The viability at 1 µM (MDA-MB-231 [16]) was 14.2%, the Activity (MDA-MB-231 [17]) was “Dose-Dependent Effect” and the Activity (MDA-MB-231 [18]) was “Dose-Dependent Effect”. For the same molecule, the Activity [19] was “Non-Toxic”, the mortality at 384 h [20] was 100% and the inhibition in vivo at 12.5 mg/kg (4T1 [21]) was 63.1%. The inhibition in vivo at 25 mg/kg (4T1 [22]) was 86.1%, the Activity (4T1 [23]) was “Active” and the Activity [24] was “Non-Toxic”. For the same molecule, the Activity [25] was “Non-Toxic”, the Activity [26] was “Non-Toxic” and the inhibition (4T1 [27]) was “Active”. For the same molecule, the Activity (MDA-MB-231 [28]) was “Dose-Dependent Effect”, the inhibition (MDA-MB-231 [29]) was “Active” and the Activity (MDA-MB-231 [30]) was 310.56 um. For the same molecule, the inhibition (MDA-MB-231 [31]) was “Dose-Dependent Effect”, the Activity (MDA-MB-231 [32]) was “inactive” and the LD50 at 384 h [33] was 537 mg/kg. The Activity [34] was “Non-Toxic” and the Activity [35] was “Non-Toxic”.
